Assay results taken from the supplement of paper PMC6045584.
± gives the standard deviation of the averaged measurements.

How the values were obtained:
[1] = compound: Cn1cc(C2=Nc3cc(NC(=O)C(N)C4CCCCC4)cc4c3C2=CNNC4=O)cn1; test: area under dose-response curve of surviving fraction (unscaled, Aref=0) (surviving fraction x log10(nM)); higher = more resistant; conditions: exposure time: 5 days; dose range 0.5-1000 nM
Summary of the method: (§1)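 Inhibitor was applied to tumour cell lines at eight concentrations (0.5 to 1000 nM) for five days in 384-well plates. Luminescence from CellTiter-Glo, scaled to DMSO-only wells, gave surviving fractions in three screens per line, and these were fitted by 3-parameter logistic regression with the drc R package. The area under the curve is an unscaled activity area. Aref was 0, and dose was on a log10 scale.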

[2] = compound: T1, C=CC(=O)Nc1cc2c(Nc3ccc(F)c(Cl)c3)ncnc2cc1OCCCN1CCOCC1 [CANERTINIB]; test: as above; conditions: exposure time: 5 days; dose range 0.5-1000 nM
Summary of the method: as §1

[3] = compound: T2, CNC(=O)c1ccc(N2C(=S)N(c3ccc(C#N)c(C(F)(F)F)c3)C(=O)C2(C)C)cc1F [MDV3100]; test: as above; conditions: exposure time: 5 days; dose range 0.5-1000 nM
Summary of the method: as §1

[4] = compound: T3, CN(C)C/C=C/C(=O)Nc1cc2c(Nc3ccc(F)c(Cl)c3)ncnc2cc1O[C@H]1CCOC1 [AFATINIB]; test: as above; conditions: exposure time: 5 days; dose range 0.5-1000 nM
Summary of the method: as §1

[5] = compound: T4, CCCCCCCCCCCCCCCC(=O)Nc1ccn([C@@H]2O[C@H](CO)[C@@H](O)[C@@H]2C#N)c(=O)n1 [SAPACITABINE]; test: as above; conditions: exposure time: 5 days; dose range 0.5-1000 nM
Summary of the method: as §1

[6] = compound: T5, CC1(C)CC(=O)c2c(C(F)(F)F)nn(-c3ccc(C(N)=O)c(N[C@H]4CC[C@H](OC(=O)CN)CC4)c3)c2C1 [SNX-5422]; test: as above; conditions: exposure time: 5 days; dose range 0.5-1000 nM
Summary of the method: as §1

[7] = compound: T6, CC[C@@H]1C(=O)N(C)c2cnc(Nc3ccc(C(=O)NC4CCN(C)CC4)cc3OC)nc2N1C1CCCC1 [BI-2536]; test: as above; conditions: exposure time: 5 days; dose range 0.5-1000 nM
Summary of the method: as §1

[8] = compound: T7, Nc1nc2[nH]cnc2c(=S)[nH]1 [TIOGUANINE]; test: as above; conditions: exposure time: 5 days; dose range 0.5-1000 nM
Summary of the method: as §1

[9] = compound: Cn1cc(C2=Nc3cc(NC(=O)C(N)C4CCCCC4)cc4c3C2=CNNC4=O)cn1; test: surviving fraction relative to DMSO-only wells; higher = less growth inhibition; conditions: exposure time: 5 days
Summary of the method: (§2)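 After seeding at 250–500 cells per well in 384-well plates and a 24-hour wait, log-phase tumour cell lines were exposed without interruption for five days to inhibitors at 0.5, 1, 5, 10, 50, 100, 500 and 1000 nM. CellTiter-Glo luminescence was recorded after 10 minutes at room temperature. Viability is reported as surviving fraction, the luminescence normalised to the median of DMSO-only wells.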

[10] = compound: T1, CANERTINIB; test: as above; conditions: exposure time: 5 days
Summary of the method: as §2

[11] = compound: T2, MDV3100; test: as above; conditions: exposure time: 5 days
Summary of the method: as §2

[12] = compound: T3, AFATINIB; test: as above; conditions: exposure time: 5 days
Summary of the method: as §2

[13] = compound: T4, SAPACITABINE; test: as above; conditions: exposure time: 5 days
Summary of the method: as §2

[14] = compound: T5, SNX-5422; test: as above; conditions: exposure time: 5 days
Summary of the method: as §2

[15] = compound: T6, BI-2536; test: as above; conditions: exposure time: 5 days
Summary of the method: as §2

[16] = compound: T7, TIOGUANINE; test: as above; conditions: exposure time: 5 days
Summary of the method: as §2

Q: Which results are given for HCC1806 BREAST?
A: area under dose-response curve [1]: 2.07; area under dose-response curve [2]: 2.12; area under dose-response curve [3]: 3.52; area under dose-response curve [4]: 2.28; area under dose-response curve [5]: 1.25; area under dose-response curve [6]: 1.85; area under dose-response curve [7]: 0.671; area under dose-response curve [8]: 3.5; surviving fraction ([9]; 0.5 nM): 1.08 ± 0.062; surviving fraction ([9]; 1 nM): 1.16 ± 0.14; surviving fraction ([9]; 5 nM): 1.09 ± 0.071; surviving fraction ([9]; 10 nM): 1.05 ± 0.092; surviving fraction ([9]; 50 nM): 0.528 ± 0.15; surviving fraction ([9]; 100 nM): 0.145 ± 0.041; surviving fraction ([9]; 500 nM): 0.0373 ± 0.0042; surviving fraction ([9]; 1000 nM): 0.0433 ± 0.0025; surviving fraction ([10]; 0.5 nM): 0.803 ± 0.11; surviving fraction ([10]; 1 nM): 0.688 ± 0.12; surviving fraction ([10]; 5 nM): 0.738 ± 0.081; surviving fraction ([10]; 10 nM): 0.706 ± 0.022; surviving fraction ([10]; 50 nM): 0.738 ± 0.12; surviving fraction ([10]; 100 nM): 0.639 ± 0.027; surviving fraction ([10]; 500 nM): 0.442 ± 0.043; surviving fraction ([10]; 1000 nM): 0.328 ± 0.037; surviving fraction ([11]; 0.5 nM): 1.01 ± 0.032; surviving fraction ([11]; 1 nM): 1.07 ± 0.067; surviving fraction ([11]; 5 nM): 1.13 ± 0.045; surviving fraction ([11]; 10 nM): 0.993 ± 0.074; surviving fraction ([11]; 50 nM): 1.14 ± 0.045; surviving fraction ([11]; 100 nM): 1.12 ± 0.049; surviving fraction ([11]; 500 nM): 1.04 ± 0.051; surviving fraction ([11]; 1000 nM): 1.03 ± 0.06; surviving fraction ([12]; 0.5 nM): 1.1 ± 0.084; surviving fraction ([12]; 1 nM): 1 ± 0.038; surviving fraction ([12]; 5 nM): 0.893 ± 0.071; surviving fraction ([12]; 10 nM): 0.726 ± 0.075; surviving fraction ([12]; 50 nM): 0.57 ± 0.045; surviving fraction ([12]; 100 nM): 0.586 ± 0.028; surviving fraction ([12]; 500 nM): 0.401 ± 0.036; surviving fraction ([12]; 1000 nM): 0.343 ± 0.03; surviving fraction ([13]; 0.5 nM): 0.698 ± 0.06; surviving fraction ([13]; 1 nM): 0.673 ± 0.062; surviving fraction ([13]; 5 nM): 0.652 ± 0.048; surviving fraction ([13]; 10 nM): 0.462 ± 0.067; surviving fraction ([13]; 50 nM): 0.259 ± 0.028; surviving fraction ([13]; 100 nM): 0.167 ± 0.0089; surviving fraction ([13]; 500 nM): 0.0637 ± 0.0081; surviving fraction ([13]; 1000 nM): 0.061 ± 0.007; surviving fraction ([14]; 0.5 nM): 1.15 ± 0.15; surviving fraction ([14]; 1 nM): 1.04 ± 0.064; surviving fraction ([14]; 5 nM): 1.12 ± 0.012; surviving fraction ([14]; 10 nM): 1.07 ± 0.07; surviving fraction ([14]; 50 nM): 0.05 ± 0.0085; surviving fraction ([14]; 100 nM): 0.03 ± 0.001; surviving fraction ([14]; 500 nM): 0.029; surviving fraction ([14]; 1000 nM): 0.035 ± 0.001; surviving fraction ([15]; 0.5 nM): 0.932 ± 0.046; surviving fraction ([15]; 1 nM): 0.749 ± 0.07; surviving fraction ([15]; 5 nM): 0.05 ± 0.0082; surviving fraction ([15]; 10 nM): 0.0447 ± 0.026; surviving fraction ([15]; 50 nM): 0.126 ± 0.025; surviving fraction ([15]; 100 nM): 0.136 ± 0.0081; surviving fraction ([15]; 500 nM): 0.106 ± 0.0027; surviving fraction ([15]; 1000 nM): 0.0743 ± 0.015; surviving fraction ([16]; 0.5 nM): 0.989 ± 0.061; surviving fraction ([16]; 1 nM): 1.1 ± 0.059; surviving fraction ([16]; 5 nM): 1.08 ± 0.11; surviving fraction ([16]; 10 nM): 1.08 ± 0.12; surviving fraction ([16]; 50 nM): 1.13 ± 0.15; surviving fraction ([16]; 100 nM): 1.13 ± 0.19; surviving fraction ([16]; 500 nM): 1.03 ± 0.12; surviving fraction ([16]; 1000 nM): 0.952 ± 0.061
